Reference: US4914086A, “Method for treating African human and veterinary trypanosomiases” (priority 1987, dated 1990)

Test system: T. b. brucei EATRO 110
Assay: Drug screen, acute EATRO 110 mouse infection (Tables 1, 3)
Format: in vivo, Trypanosoma brucei brucei (in Swiss-Webster mice)
Conditions: for activity in words: 300 mg/kg; for # Cured/Total / % Cured: Table 1, treatment begun 24 h post infection
Description: T. b. brucei EATRO 110 isolate was maintained as described (Bacchi, C. J., H. C. Nathan, S. H. Hutner, P. P. McCann and A. Sjoerdsma; Polyamine metabolism: a potential chemotherapeutic target in trypanosomes. Science 210: 332-334, 1980). It produces an acute, rapidly fatal parasitemia which is lethal to mice 3-5 days after inoculation. Two T. B. brucei strains, TREU 667 and LUMP 1001 developed by Jennings and coworkers (Jennings, F. W., D. D. Whitelaw and G. M. Urquhart; The relationship between duration of infection with Trypanosoma brucei in mice and the efficacy of chemotherapy. Parasitology 75: 143-153, 1977/Jennings, F. W. and G. D. Gray; Relapsed parasitemia following chemotherapy of chronic T. brucei infections in mice and its relation to cerebral trypanosomes; Contr. Microbiol. Immunol. 7 147-154, 1983) were used as CNS models. Both produce infections which are refractory to Berenil® (diminazene aceturate) and develop within 21 days after inoculation. They are not usually fatal until >40 days after inoculation. LUMP 1001 causes a more virulent CNS infection than TREU 667, and is regarded as more difficult to cure (Jennings, F. W. and G. D. Gray. Relapsed parasitemia following chemotherapy of chronic T. brucei infections in mice and its relation to cerebral trypanosomes. Contr. Microbiol. Immunol. 7 147-154, 1983).
Swiss-Webster (25-30 g) mice were used throughout. In the EATRO 110 model, groups of 100 mice were infected (10^5 trypanosomes/mouse) and the infection was allowed to develop 24 hours before commencing therapy. Animals were divided into groups of 5 before treatment. Cured animals survived >30 days beyond deaths of controls. All compounds were administered by i.p. injection.
Other methods as in Table 1.

Compound | activity in words | # Cured/Total (250 mg/kg i.p.) | % Cured (250 mg/kg i.p.) [%] | # Cured/Total (300 mg/kg i.p.) | % Cured (300 mg/kg i.p.) [%]
O=c1ncnc2n([C@H]3O[C@@H](CO)[C@H](O)[C@@H]3O)[nH]cc1-2 (stereo in doubt) [Allopurinol Riboside, reference compound] | completely inactive | 0/5 | 0 | – | –
Oc1ncnc2[nH]ncc12 [Allopurinol, reference compound] | completely inactive | – | – | 0/5 | 0
